Assay results from ChEMBL document CHEMBL1148653, “Synthesis, structural reassignment, and biological activity of type B MAO inhibitors based on the 5H-indeno[1,2-c]pyridazin-5-one core” (J Med Chem, 2006).

What was measured:
[1] = target: T1, Amine oxidase [flavin-containing] B (Rattus norvegicus, UniProt P19643); test: Inhibition of MAO-B in rat brain mitochondria
T1 sequence (P19643 whole entry): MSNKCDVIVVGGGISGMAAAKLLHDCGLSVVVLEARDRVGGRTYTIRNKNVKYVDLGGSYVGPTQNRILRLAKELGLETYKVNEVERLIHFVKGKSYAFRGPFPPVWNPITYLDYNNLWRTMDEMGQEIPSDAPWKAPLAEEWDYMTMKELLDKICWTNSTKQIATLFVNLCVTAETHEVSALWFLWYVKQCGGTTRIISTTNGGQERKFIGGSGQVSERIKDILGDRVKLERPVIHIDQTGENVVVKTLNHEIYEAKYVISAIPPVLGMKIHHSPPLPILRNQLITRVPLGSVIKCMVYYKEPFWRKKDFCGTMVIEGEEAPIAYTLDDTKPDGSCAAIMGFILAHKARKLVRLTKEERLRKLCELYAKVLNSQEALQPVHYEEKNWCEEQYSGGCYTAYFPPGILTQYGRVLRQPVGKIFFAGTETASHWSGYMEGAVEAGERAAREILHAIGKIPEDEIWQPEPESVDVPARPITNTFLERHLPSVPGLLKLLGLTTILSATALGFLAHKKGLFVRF

[2] = target: T2, Amine oxidase [flavin-containing] A (Rattus norvegicus, UniProt P21396); test: Inhibition of MAO-A in rat brain mitochondria
T2 sequence (P21396 whole entry): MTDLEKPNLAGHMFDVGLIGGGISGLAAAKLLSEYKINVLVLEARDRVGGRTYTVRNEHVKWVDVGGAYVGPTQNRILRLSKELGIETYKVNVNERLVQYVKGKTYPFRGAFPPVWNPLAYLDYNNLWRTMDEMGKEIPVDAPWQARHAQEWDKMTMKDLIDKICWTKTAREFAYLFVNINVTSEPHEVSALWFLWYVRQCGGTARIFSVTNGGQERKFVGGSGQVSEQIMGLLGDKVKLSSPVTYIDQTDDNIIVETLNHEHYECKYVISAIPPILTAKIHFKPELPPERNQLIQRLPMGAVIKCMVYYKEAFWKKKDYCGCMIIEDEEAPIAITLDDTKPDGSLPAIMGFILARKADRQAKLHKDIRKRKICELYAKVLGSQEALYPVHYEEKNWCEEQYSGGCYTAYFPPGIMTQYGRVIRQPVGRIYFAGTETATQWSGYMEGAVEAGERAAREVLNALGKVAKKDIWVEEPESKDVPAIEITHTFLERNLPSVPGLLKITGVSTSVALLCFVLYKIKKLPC

[3] = target: T3, Amine oxidase [flavin-containing] A (Homo sapiens, UniProt P21397); test: Inhibition of MAO-A in human placental mitochondria at 5 uM; parameters: species or system Placenta
T3 sequence (P21397 whole entry): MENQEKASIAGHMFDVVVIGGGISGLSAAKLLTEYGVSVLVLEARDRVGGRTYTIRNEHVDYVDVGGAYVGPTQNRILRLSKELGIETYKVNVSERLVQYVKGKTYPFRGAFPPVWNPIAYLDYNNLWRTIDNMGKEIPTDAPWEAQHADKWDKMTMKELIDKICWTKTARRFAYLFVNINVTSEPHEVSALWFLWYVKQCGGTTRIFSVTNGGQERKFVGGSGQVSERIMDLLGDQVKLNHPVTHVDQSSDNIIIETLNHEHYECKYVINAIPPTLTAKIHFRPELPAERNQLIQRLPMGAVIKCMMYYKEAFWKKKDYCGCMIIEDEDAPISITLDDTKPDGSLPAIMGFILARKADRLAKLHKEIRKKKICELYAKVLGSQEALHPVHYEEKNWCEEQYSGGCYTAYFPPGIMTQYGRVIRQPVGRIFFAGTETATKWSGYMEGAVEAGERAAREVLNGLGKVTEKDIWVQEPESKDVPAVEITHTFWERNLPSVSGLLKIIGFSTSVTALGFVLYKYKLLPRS

| IC50 [1] | IC50 [2] | Inhibition [3] | Structure (SMILES) |
| --- | --- | --- | --- |
| > 1000 nM | > 1000 nM | – | COc1ccc2c(c1)-c1nnc(C)cc1C2=O |
| – | – | Not Active | COc1ccc2c(c1)C(=O)c1cc(-c3cccc(C(F)(F)F)c3)nnc1-2 |
| 170 nM | > 1000 nM | – | Cc1cc2c(nn1)-c1cc(OCc3ccccc3)ccc1C2=O |
| – | – | Not Active | COc1ccc2c(c1)-c1nnc(-c3cccc(C(F)(F)F)c3)cc1C2=O |
